Reference: ChEMBL document CHEMBL4725389, “Novel Blocker of Onco SK3 Channels Derived from Scorpion Toxin Tamapin and Active against Migration of Cancer Cells” (ACS Med Chem Lett, 2020)
Calls of active or inactive are those of the source. No cut-off for these calls is given here. Positions of bridges follow the written chain, without caps; N, C: chain ends. Residues, ends and D or L forms follow the SMILES beside them.

Legend:
[1] = molecular target: Small conductance calcium-activated potassium channel protein 3 (Homo sapiens, UniProt Q9UGI6); test: Inhibition of recombinant human SK3 expressed in HEK293T cells at 10 nM and holding potential at 0 mV and ramp voltage from -100 to 100 mV by whole cell patch clamp method relative to control; assay type: cell-based; conditions: HEK-293T
Chain of Small conductance calcium-activated potassium channel protein 3 (Q9UGI6 whole entry): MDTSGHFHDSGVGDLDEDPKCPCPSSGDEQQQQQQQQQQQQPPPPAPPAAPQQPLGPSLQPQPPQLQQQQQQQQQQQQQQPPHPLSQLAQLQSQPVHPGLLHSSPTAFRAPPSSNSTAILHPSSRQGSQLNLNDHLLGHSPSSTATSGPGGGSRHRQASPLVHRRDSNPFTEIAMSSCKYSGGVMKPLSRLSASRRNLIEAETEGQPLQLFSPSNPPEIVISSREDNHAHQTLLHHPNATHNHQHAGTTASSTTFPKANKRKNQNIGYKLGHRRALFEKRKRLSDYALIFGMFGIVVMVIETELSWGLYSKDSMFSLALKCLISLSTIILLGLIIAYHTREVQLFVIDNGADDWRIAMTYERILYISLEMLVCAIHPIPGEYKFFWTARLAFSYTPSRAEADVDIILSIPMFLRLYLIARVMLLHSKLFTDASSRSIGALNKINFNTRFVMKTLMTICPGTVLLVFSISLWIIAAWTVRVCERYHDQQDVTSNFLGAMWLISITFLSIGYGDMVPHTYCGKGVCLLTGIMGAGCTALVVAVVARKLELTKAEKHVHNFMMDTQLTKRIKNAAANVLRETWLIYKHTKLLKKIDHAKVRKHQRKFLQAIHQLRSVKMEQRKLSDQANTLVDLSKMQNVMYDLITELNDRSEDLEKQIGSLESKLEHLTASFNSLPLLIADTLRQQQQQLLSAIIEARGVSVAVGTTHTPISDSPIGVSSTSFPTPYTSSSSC

[2] = molecular target: Small conductance calcium-activated potassium channel protein 2 (Rattus norvegicus) (UniProt P70604); test: Inhibition of recombinant rat SK2 expressed in HEK293 cells at 10 nM and holding potential at 0 mV and ramp voltage from -100 to 100 mV by whole cell patch clamp method relative to control; assay type: cell-based
Chain of Small conductance calcium-activated potassium channel protein 2 (Rattus norvegicus) (P70604 whole entry): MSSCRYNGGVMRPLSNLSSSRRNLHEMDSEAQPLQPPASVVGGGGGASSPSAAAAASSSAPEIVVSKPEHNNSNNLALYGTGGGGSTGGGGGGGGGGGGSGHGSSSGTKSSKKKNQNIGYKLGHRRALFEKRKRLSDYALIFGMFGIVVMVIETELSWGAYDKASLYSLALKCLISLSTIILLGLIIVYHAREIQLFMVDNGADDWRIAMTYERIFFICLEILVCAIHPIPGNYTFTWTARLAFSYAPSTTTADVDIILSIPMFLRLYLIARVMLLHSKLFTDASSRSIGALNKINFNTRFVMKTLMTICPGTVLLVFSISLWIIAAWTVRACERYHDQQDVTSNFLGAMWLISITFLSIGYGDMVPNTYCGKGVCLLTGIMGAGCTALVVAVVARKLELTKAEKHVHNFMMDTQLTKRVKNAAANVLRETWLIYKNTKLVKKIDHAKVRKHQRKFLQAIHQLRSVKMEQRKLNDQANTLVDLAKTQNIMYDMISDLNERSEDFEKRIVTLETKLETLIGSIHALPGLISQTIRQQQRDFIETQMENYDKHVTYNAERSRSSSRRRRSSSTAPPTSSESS

SMILES	inhibition [1]	inhibition [2] [%]
CC[C@H](C)[C@@H]1NC(=O)[C@@H]2CSSC[C@H](NC(=O)[C@H](Cc3ccccc3)NC(=O)[C@H](C)N)C(=O)N[C@@H](CC(N)=O)C(=O)N[C@@H](CC(C)C)C(=O)N[C@@H](CCCNC(=N)N)C(=O)N[C@@H](CCCNC(=N)N)C(=O)N[C@H]3CSSC[C@H](NC(=O)[C@H](CCC(=O)O)NC(=O)[C@H](CCC(=O)O)NC(=O)CNC1=O)C(=O)N[C@@H](CCC(=O)O)C(=O)N[C@H](C(=O)N[C@H](C(=O)N1CCC[C@H]1C(=O)N[C@@H](Cc1ccc(O)cc1)C(=O)O)C(C)C)CSSC[C@H](NC(=O)[C@H](CO)NC(=O)[C@H](CC(C)C)NC(=O)[C@H](CCC(=O)O)NC3=O)C(=O)N[C@@H](CCCNC(=N)N)C(=O)N[C@@H](CO)C(=O)N[C@@H](CC(C)C)C(=O)NCC(=O)N[C@@H](CC(C)C)C(=O)N[C@@H](CC(C)C)C(=O)NCC(=O)N[C@@H](CCCCN)C(=O)N2 (H-AFCNLRRCELSCRSLGLLGKCIGEECECVPY-OH; disulfide 3-21, 8-26, 12-28)	40%	< 39
CC[C@H](C)[C@@H]1NC(=O)[C@@H]2CSSC[C@H](NC(=O)[C@H](Cc3ccccc3)NC(=O)[C@H](C)N)C(=O)N[C@@H](CC(N)=O)C(=O)N[C@@H](CC(C)C)C(=O)N[C@@H](CCCNC(=N)N)C(=O)N[C@@H](CCCNC(=N)N)C(=O)N[C@H]3CSSC[C@H](NC(=O)[C@H](CCC(=O)O)NC(=O)[C@H](CCC(=O)O)NC(=O)CNC1=O)C(=O)N[C@@H](CCCCN)C(=O)N[C@H](C(=O)N[C@H](C(=O)N[C@@H](Cc1ccc(O)cc1)C(=O)O)C(C)C)CSSC[C@H](NC(=O)[C@H](CO)NC(=O)[C@H](CC(C)C)NC(=O)[C@H](CCC(=O)O)NC3=O)C(=O)N[C@@H](CCCNC(=N)N)C(=O)N[C@@H](CO)C(=O)N[C@@H](CC(C)C)C(=O)NCC(=O)N[C@@H](CC(C)C)C(=O)N[C@@H](CC(C)C)C(=O)NCC(=O)N[C@@H](CCCCN)C(=O)N2 (H-AFCNLRRCELSCRSLGLLGKCIGEECKCVY-OH; disulfide 3-21, 8-26, 12-28)	< 39%	40
CC[C@H](C)[C@@H]1NC(=O)[C@@H]2CSSC[C@H](NC(=O)[C@H](Cc3ccccc3)NC(=O)[C@H](C)N)C(=O)N[C@@H](CC(N)=O)C(=O)N[C@@H](CC(C)C)C(=O)N[C@@H](CCCNC(=N)N)C(=O)N[C@@H](CCCNC(=N)N)C(=O)N[C@H]3CSSC[C@H](NC(=O)[C@H](CCCCN)NC(=O)[C@H](CCC(=O)O)NC(=O)CNC1=O)C(=O)N[C@@H](CCCCN)C(=O)N[C@H](C(=O)N[C@H](C(=O)N1CCC[C@H]1C(=O)N[C@@H](Cc1ccc(O)cc1)C(=O)O)C(C)C)CSSC[C@H](NC(=O)[C@H](CO)NC(=O)[C@H](CC(C)C)NC(=O)[C@H](CCC(=O)O)NC3=O)C(=O)N[C@@H](CCCNC(=N)N)C(=O)N[C@@H](CO)C(=O)N[C@@H](CC(C)C)C(=O)NCC(=O)N[C@@H](CC(C)C)C(=O)N[C@@H](CC(C)C)C(=O)NCC(=O)N[C@@H](CCCCN)C(=O)N2 (H-AFCNLRRCELSCRSLGLLGKCIGEKCKCVPY-OH; disulfide 3-21, 8-26, 12-28)	40%	< 39
CC[C@H](C)[C@@H]1NC(=O)[C@@H]2CSSC[C@H](NC(=O)[C@H](Cc3ccccc3)NC(=O)[C@H](C)N)C(=O)N[C@@H](CC(N)=O)C(=O)N[C@@H](CC(C)C)C(=O)N[C@@H](CCCNC(=N)N)C(=O)N[C@@H](CCCNC(=N)N)C(=O)N[C@H]3CSSC[C@H](NC(=O)[C@H](CCC(=O)O)NC(=O)[C@H](CCC(=O)O)NC(=O)CNC1=O)C(=O)N[C@@H](CCCCN)C(=O)N[C@H](C(=O)N[C@H](C(=O)N1CCC[C@H]1C(=O)N[C@@H](C)C(=O)O)C(C)C)CSSC[C@H](NC(=O)[C@H](CO)NC(=O)[C@H](CC(C)C)NC(=O)[C@H](CCC(=O)O)NC3=O)C(=O)N[C@@H](CCCNC(=N)N)C(=O)N[C@@H](CO)C(=O)N[C@@H](CC(C)C)C(=O)NCC(=O)N[C@@H](CC(C)C)C(=O)N[C@@H](CC(C)C)C(=O)NCC(=O)N[C@@H](CCCCN)C(=O)N2 (H-AFCNLRRCELSCRSLGLLGKCIGEECKCVPA-OH; disulfide 3-21, 8-26, 12-28)	< 39%	40
CC[C@H](C)[C@@H]1NC(=O)[C@@H]2CSSC[C@H](NC(=O)[C@H](Cc3ccccc3)NC(=O)[C@H](C)N)C(=O)N[C@@H](CC(N)=O)C(=O)N[C@@H](CC(C)C)C(=O)N[C@@H](CCCNC(=N)N)C(=O)N[C@@H](CCCNC(=N)N)C(=O)N[C@H]3CSSC[C@H](NC(=O)[C@H](CCC(=O)O)NC(=O)[C@H](CCC(=O)O)NC(=O)CNC1=O)C(=O)N[C@@H](CCCCN)C(=O)N[C@H](C(=O)N[C@H](C(=O)N1CCC[C@H]1C(=O)N[C@@H](Cc1c[nH]cn1)C(=O)O)C(C)C)CSSC[C@H](NC(=O)[C@H](CO)NC(=O)[C@H](CC(C)C)NC(=O)[C@H](CCC(=O)O)NC3=O)C(=O)N[C@@H](CCCNC(=N)N)C(=O)N[C@@H](CO)C(=O)N[C@@H](CC(C)C)C(=O)NCC(=O)N[C@@H](CC(C)C)C(=O)N[C@@H](CC(C)C)C(=O)NCC(=O)N[C@@H](CCCCN)C(=O)N2 (H-AFCNLRRCELSCRSLGLLGKCIGEECKCVPH-OH; disulfide 3-21, 8-26, 12-28)	< 39%	40
CC[C@H](C)[C@@H]1NC(=O)[C@@H]2CSSC[C@H](NC(=O)[C@H](Cc3ccccc3)NC(=O)[C@H](C)N)C(=O)N[C@@H](CC(N)=O)C(=O)N[C@@H](CC(C)C)C(=O)N[C@@H](CCCNC(=N)N)C(=O)N[C@@H](CCCNC(=N)N)C(=O)N[C@H]3CSSC[C@H](NC(=O)[C@H](CCC(=O)O)NC(=O)[C@H](CCC(=O)O)NC(=O)CNC1=O)C(=O)N[C@@H](CCCCN)C(=O)N[C@H](C(=O)N[C@H](C(=O)N1CCC[C@H]1C(=O)N[C@@H](Cc1ccc(O)cc1)C(=O)O)C(C)C)CSSC[C@H](NC(=O)[C@H](CO)NC(=O)[C@H](CC(C)C)NC(=O)[C@H](CCC(=O)O)NC3=O)C(=O)N[C@@H](CCCNC(=N)N)C(=O)N[C@@H](CO)C(=O)N[C@@H](CC(C)C)C(=O)NCC(=O)N[C@@H](CC(C)C)C(=O)N[C@@H](CC(C)C)C(=O)NCC(=O)N[C@@H](C)C(=O)N2 (H-AFCNLRRCELSCRSLGLLGACIGEECKCVPY-OH; disulfide 3-21, 8-26, 12-28)	inactive	> 85
CC[C@H](C)[C@@H]1NC(=O)[C@@H]2CSSC[C@H](NC(=O)[C@H](Cc3ccccc3)NC(=O)[C@H](C)N)C(=O)N[C@@H](CC(N)=O)C(=O)N[C@@H](CC(C)C)C(=O)N[C@@H](CCCNC(=N)N)C(=O)N[C@@H](CCCNC(=N)N)C(=O)N[C@H]3CSSC[C@H](NC(=O)[C@H](CCC(=O)O)NC(=O)[C@H](CCC(=O)O)NC(=O)CNC1=O)C(=O)N[C@@H](CCCCN)C(=O)N[C@H](C(=O)N[C@H](C(=O)N1CCC[C@H]1C(=O)N[C@@H](Cc1ccc(O)cc1)C(=O)N[C@@H](CC(N)=O)C(=O)O)C(C)C)CSSC[C@H](NC(=O)[C@H](CO)NC(=O)[C@H](CC(C)C)NC(=O)[C@H](CCC(=O)O)NC3=O)C(=O)N[C@@H](CCCNC(=N)N)C(=O)N[C@@H](CO)C(=O)N[C@@H](CC(C)C)C(=O)NCC(=O)N[C@@H](CC(C)C)C(=O)N[C@@H](CC(C)C)C(=O)NCC(=O)N[C@@H](CCCCN)C(=O)N2 (H-AFCNLRRCELSCRSLGLLGKCIGEECKCVPYN-OH; disulfide 3-21, 8-26, 12-28)	< 39%	40

Other lines, results leading:

inhibition [1]	inhibition [2] [%]	SMILES
40%	< 39	CC[C@H](C)[C@@H]1NC(=O)[C@@H]2CSSC[C@H](NC(=O)[C@H](Cc3ccccc3)NC(=O)[C@H](C)N)C(=O)N[C@@H](CC(N)=O)C(=O)N[C@@H](CC(C)C)C(=O)N[C@@H](CCCNC(=N)N)C(=O)N[C@@H](CCCNC(=N)N)C(=O)N[C@H]3CSSC[C@H](NC(=O)[C@H](CCC(=O)O)NC(=O)[C@H](CCC(=O)O)NC(=O)CNC1=O)C(=O)N[C@@H](C)C(=O)N[C@H](C(=O)N[C@H](C(=O)N1CCC[C@H]1C(=O)N[C@@H](Cc1ccc(O)cc1)C(=O)O)C(C)C)CSSC[C@H](NC(=O)[C@H](CO)NC(=O)[C@H](CC(C)C)NC(=O)[C@H](CCC(=O)O)NC3=O)C(=O)N[C@@H](CCCNC(=N)N)C(=O)N[C@@H](CO)C(=O)N[C@@H](CC(C)C)C(=O)NCC(=O)N[C@@H](CC(C)C)C(=O)N[C@@H](CC(C)C)C(=O)NCC(=O)N[C@@H](CCCCN)C(=O)N2 (H-AFCNLRRCELSCRSLGLLGKCIGEECACVPY-OH; disulfide 3-21, 8-26, 12-28)
< 39%	40	CC[C@H](C)[C@@H]1NC(=O)[C@@H]2CSSC[C@H](NC(=O)[C@H](Cc3ccccc3)NC(=O)[C@H](C)N)C(=O)N[C@@H](CC(N)=O)C(=O)N[C@@H](CC(C)C)C(=O)N[C@@H](CCCNC(=N)N)C(=O)N[C@@H](CCCNC(=N)N)C(=O)N[C@H]3CSSC[C@H](NC(=O)[C@H](CCC(=O)O)NC(=O)[C@H](CCC(=O)O)NC(=O)CNC1=O)C(=O)N[C@@H](CCCCN)C(=O)N[C@H](C(=O)N[C@H](C(=O)N[C@@H](Cc1ccc(O)cc1)C(=O)N[C@@H](CC(N)=O)C(=O)O)C(C)C)CSSC[C@H](NC(=O)[C@H](CO)NC(=O)[C@H](CC(C)C)NC(=O)[C@H](CCC(=O)O)NC3=O)C(=O)N[C@@H](CCCNC(=N)N)C(=O)N[C@@H](CO)C(=O)N[C@@H](CC(C)C)C(=O)NCC(=O)N[C@@H](CC(C)C)C(=O)N[C@@H](CC(C)C)C(=O)NCC(=O)N[C@@H](CCCCN)C(=O)N2 (H-AFCNLRRCELSCRSLGLLGKCIGEECKCVYN-OH; disulfide 3-21, 8-26, 12-28)
< 39%	> 85	CC[C@H](C)[C@@H]1NC(=O)[C@@H]2CSSC[C@H](NC(=O)[C@H](Cc3ccccc3)NC(=O)[C@H](C)N)C(=O)N[C@@H](CC(N)=O)C(=O)N[C@@H](CC(C)C)C(=O)N[C@@H](CCCNC(=N)N)C(=O)N[C@@H](CCCNC(=N)N)C(=O)N[C@H]3CSSC[C@H](NC(=O)[C@H](CCC(=O)O)NC(=O)[C@H](CCC(=O)O)NC(=O)CNC1=O)C(=O)N[C@@H](CCCCN)C(=O)N[C@H](C(=O)N[C@H](C(=O)N1CCC[C@H]1C(=O)N[C@@H](Cc1ccc(O)cc1)C(=O)O)C(C)C)CSSC[C@H](NC(=O)[C@H](CO)NC(=O)[C@H](CC(C)C)NC(=O)[C@H](CCC(=O)O)NC3=O)C(=O)N[C@@H](CCCNC(=N)N)C(=O)N[C@@H](CO)C(=O)N[C@@H](CC(C)C)C(=O)NCC(=O)N[C@@H](CC(C)C)C(=O)N[C@@H](CC(C)C)C(=O)NCC(=O)N[C@@H](CCC(=O)O)C(=O)N2 (H-AFCNLRRCELSCRSLGLLGECIGEECKCVPY-OH; disulfide 3-21, 8-26, 12-28)
